# Measurements as given in BindingDB's records for doi:10.1021/jm701311r (Georgia Institute of Technology, 2008).
# Legend:
# Assay in all cases: AE Enzyme Inhibition Assay
# Legumain [1] = target: T1, Legumain (Schistosoma mansoni, UniProt Q9NFY9)
# T1 sequence (Q9NFY9 whole entry): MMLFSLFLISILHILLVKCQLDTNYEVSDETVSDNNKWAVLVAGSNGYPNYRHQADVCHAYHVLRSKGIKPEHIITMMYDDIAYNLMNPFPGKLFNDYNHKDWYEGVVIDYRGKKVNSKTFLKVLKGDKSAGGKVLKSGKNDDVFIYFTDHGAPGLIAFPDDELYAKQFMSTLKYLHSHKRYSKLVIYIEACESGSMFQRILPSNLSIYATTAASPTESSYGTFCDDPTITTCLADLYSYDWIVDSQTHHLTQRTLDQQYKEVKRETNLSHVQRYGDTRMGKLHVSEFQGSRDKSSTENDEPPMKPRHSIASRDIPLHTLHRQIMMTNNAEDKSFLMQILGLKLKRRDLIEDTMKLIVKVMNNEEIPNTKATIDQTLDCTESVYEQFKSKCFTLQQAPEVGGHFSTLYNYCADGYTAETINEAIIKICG
# Method: (§1) AE activity in the induction medium was measured with the substrate Cbz-Ala-Ala-Asn-AMC. In a black 96-well microtiter plate, aza-peptidyl inhibitors were added to the reaction buffer containing the activated enzyme, and allowed to incubate at room temperature for 20 min. Then, substrate Cbz- Ala-Ala-Asn-AMC was added and the reaction allowed proceeding for 20 min. Plotting the relative fluorescence units (RFU)/min against the inhibitor concentration (uM) permitted calculation of the IC50 value.
# Legumain [2] = target: T2, Legumain (Ixodes ricinus, UniProt Q6PRC7); details: 25 °C
# T2 sequence (Q6PRC7 whole entry): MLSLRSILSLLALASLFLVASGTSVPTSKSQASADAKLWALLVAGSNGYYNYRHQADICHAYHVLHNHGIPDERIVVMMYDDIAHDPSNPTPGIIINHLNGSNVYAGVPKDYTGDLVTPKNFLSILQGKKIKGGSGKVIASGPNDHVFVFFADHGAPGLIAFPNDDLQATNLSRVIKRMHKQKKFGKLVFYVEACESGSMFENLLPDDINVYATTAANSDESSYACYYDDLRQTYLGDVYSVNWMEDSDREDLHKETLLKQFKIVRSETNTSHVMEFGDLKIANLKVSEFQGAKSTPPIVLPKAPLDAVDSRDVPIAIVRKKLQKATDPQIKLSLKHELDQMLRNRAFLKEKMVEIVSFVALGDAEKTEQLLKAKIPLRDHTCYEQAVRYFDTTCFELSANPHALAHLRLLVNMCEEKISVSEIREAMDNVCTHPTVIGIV
# Method: as §1
# [3] = target: T3, Clan CD, family C13, asparaginyl endopeptidase-like cysteine peptidase (Trichomonas vaginalis (strain ATCC PRA-98 / G3), UniProt A2DYT2)
# T3 sequence (A2DYT2 whole entry): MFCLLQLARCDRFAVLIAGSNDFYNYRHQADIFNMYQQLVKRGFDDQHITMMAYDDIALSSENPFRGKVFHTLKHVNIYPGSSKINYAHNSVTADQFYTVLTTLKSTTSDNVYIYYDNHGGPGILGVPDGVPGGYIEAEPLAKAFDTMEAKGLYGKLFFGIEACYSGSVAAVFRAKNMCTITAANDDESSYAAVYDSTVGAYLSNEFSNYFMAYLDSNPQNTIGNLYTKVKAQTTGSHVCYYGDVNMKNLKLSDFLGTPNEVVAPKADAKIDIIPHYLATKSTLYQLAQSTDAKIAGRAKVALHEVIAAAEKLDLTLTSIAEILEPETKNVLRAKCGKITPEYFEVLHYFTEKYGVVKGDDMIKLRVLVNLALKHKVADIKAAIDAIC
# Method: as §1
Structure (SMILES),"IC50 (Legumain [1]; pH 6.8, 22 °C) [nM]",IC50 (Legumain [2]) [nM],IC50 ([3]; 25 °C) [nM],IC50 (Legumain [1]; 25 °C) [nM],"IC50 ([3]; pH 6.8, 22 °C) [nM]"
"C[C@H](NC(=O)OCc1ccccc1)C(=O)N[C@@H](C)C(=O)NN(CC(N)=O)C(=O)C=CC(=O)N(Cc1ccccc1)Cc1ccccc1 [benzyl N-[(1S)-1-{[(2S)-1-[(2E)-N,N-dibenzyl-3-[N-(carbamoylmethyl)hydrazido]prop-2-enamide]-1-oxopropan-2-yl]carbamoyl}ethyl]carbamate]",45,450,10,–,–
C[C@H](NC(=O)OCc1ccccc1)C(=O)N[C@@H](C)C(=O)NN(CC(N)=O)C(=O)C=Cc1cccnc1 [benzyl N-[(1S)-1-{[(2S)-1-[(2E)-N-(carbamoylmethyl)-3-(pyridin-3-yl)prop-2-enehydrazido]-1-oxopropan-2-yl]carbamoyl}ethyl]carbamate],> 2000,15000,8000,–,–
"C[C@H](NC(=O)OCc1ccccc1)C(=O)N[C@@H](C)C(=O)NN(CC(N)=O)C(=O)C=CC(=O)N1CCc2ccccc2C1 [benzyl N-[(1S)-1-{[(2S)-1-[(2E)-N-(carbamoylmethyl)-4-oxo-4-(1,2,3,4-tetrahydroisoquinolin-2-yl)but-2-enehydrazido]-1-oxopropan-2-yl]carbamoyl}ethyl]carbamate]",–,25,10,200,–
"C[C@H](NC(=O)OCc1ccccc1)C(=O)N[C@@H](C)C(=O)NN(CC(N)=O)C(=O)C=CC(=O)N1CCCc2ccccc21 [benzyl N-[(1S)-1-{[(2S)-1-[(2E)-N-(carbamoylmethyl)-4-oxo-4-(1,2,3,4-tetrahydroquinolin-1-yl)but-2-enehydrazido]-1-oxopropan-2-yl]carbamoyl}ethyl]carbamate]",–,4,3.5,70,–
"C[C@H](NC(=O)OCc1ccccc1)C(=O)N[C@@H](C)C(=O)NN(CC(N)=O)C(=O)C=CC(=O)N1CC=C(c2ccccc2)CC1 [benzyl N-[(1S)-1-{[(2S)-1-[(2E)-N-(carbamoylmethyl)-4-oxo-4-(4-phenyl-1,2,3,6-tetrahydropyridin-1-yl)but-2-enehydrazido]-1-oxopropan-2-yl]carbamoyl}ethyl]carbamate]",–,85,10,750,–
C[C@H](NC(=O)OCc1ccccc1)C(=O)N[C@@H](C)C(=O)NN(CC(N)=O)C(=O)C=CC(=O)N(Cc1ccccc1)Cc1cccc2ccccc12 [benzyl N-[(1S)-1-{[(2S)-1-[(2E)-N-benzyl-3-[N-(carbamoylmethyl)hydrazido]-N-(naphthalen-1-ylmethyl)prop-2-enamide]-1-oxopropan-2-yl]carbamoyl}ethyl]carbamate],–,6,< 1,62,–
C[C@H](NC(=O)OCc1ccccc1)C(=O)N[C@@H](C)C(=O)NN(CC(N)=O)C(=O)C=CC(=O)N(Cc1ccccc1)Cc1ccc2ccccc2c1 [benzyl N-[(1S)-1-{[(2S)-1-[(2E)-N-benzyl-3-[N-(carbamoylmethyl)hydrazido]-N-(naphthalen-2-ylmethyl)prop-2-enamide]-1-oxopropan-2-yl]carbamoyl}ethyl]carbamate],–,8,6,70,–
C[C@H](NC(=O)OCc1ccccc1)C(=O)N[C@@H](C)C(=O)NN(CC(N)=O)C(=O)C=CC(=O)N(Cc1ccccc1)Cc1ccc(F)cc1 [benzyl N-[(1S)-1-{[(2S)-1-[(2E)-N-benzyl-3-[N-(carbamoylmethyl)hydrazido]-N-[(4-fluorophenyl)methyl]prop-2-enamide]-1-oxopropan-2-yl]carbamoyl}ethyl]carbamate],–,700,< 1,60,–
COc1ccc(CN(Cc2ccccc2)C(=O)C=CC(=O)N(CC(N)=O)NC(=O)[C@H](C)NC(=O)[C@H](C)NC(=O)OCc2ccccc2)cc1 [benzyl N-[(1S)-1-{[(2S)-1-[(2E)-N-benzyl-3-[N-(carbamoylmethyl)hydrazido]-N-[(4-methoxyphenyl)methyl]prop-2-enamide]-1-oxopropan-2-yl]carbamoyl}ethyl]carbamate],90,12,2.3,–,–
C[C@H](NC(=O)OCc1ccccc1)C(=O)N[C@@H](C)C(=O)NN(CC(N)=O)C(=O)C=CC(=O)N(Cc1ccccc1)c1ccccc1 [benzyl N-[(1S)-1-{[(2S)-1-[(2E)-N-benzyl-3-[N-(carbamoylmethyl)hydrazido]-N-phenylprop-2-enamide]-1-oxopropan-2-yl]carbamoyl}ethyl]carbamate],70,< 1,< 1,–,–
C[C@H](NC(=O)OCc1ccccc1)C(=O)N[C@@H](C)C(=O)NN(CC(N)=O)C(=O)C=CC(=O)NCc1ccccc1 [benzyl N-[(1S)-1-{[(2S)-1-[(2E)-N-benzyl-3-[N-(carbamoylmethyl)hydrazido]prop-2-enamide]-1-oxopropan-2-yl]carbamoyl}ethyl]carbamate],1000,200,–,–,10
"CCOC(=O)C=CC(=O)N(CC(N)=O)NC(=O)[C@H](C)NC(=O)[C@H](C)NC(=O)CCCC[C@@H]1SC[C@@H]2NC(=O)N[C@@H]21 [ethyl (2E)-4-[(2S)-2-[(2S)-2-{5-[(3aS,4S,6aR)-2-oxo-hexahydro-1H-thieno[3,4-d]imidazolidin-4-yl]pentanamido}propanamido]-N'-(carbamoylmethyl)propanehydrazido]-4-oxobut-2-enoate]",–,2.8,< 10,10,–
